Measured values published in PMC8583417, “Evaluation of the Antimicrobial Efficacy of N-Acetyl-L-Cysteine, Rhamnolipids, and Usnic Acid—Novel Approaches to Fight Food-Borne Pathogens” (International Journal of Molecular Sciences, 2021).

Legend:
[1] = system: S. Enteritidis ATCC 13076; assay: CLSM analysis, biofilm prevention; format: cell-based, Salmonella enterica Enteritidis; conditions: 24 h exposure; for Thickness (µm) subCBM80: substance at subinhibitory concentration, mean ± SD
Procedure: (§1) Biofilm prevention and removal analyses were performed using previously determined minimum inhibitory and subinhibitory concentrations for metabolic activity (MICBM80, subCBM80; MICMPB80, subCMPB80) of NAC, RLs, and UA specific for each tested strain. Selected concentrations were used to evaluate the inhibition of biofilm formation (biofilm prevention) and the reduction in previously formed biofilms (biofilm removal) for the same set of microorganisms, with the exception of S. Infantis, which was excluded from the analysis due to its inability to form biofilm in the selected microtiter plate. Biofilm prevention and removal were observed using CLSM with specific staining to distinguish between live and membrane-compromised cells. Images were analyzed to evaluate (i). the total volume of the biomass, (ii). ratios of live and membrane-compromised cells, and (iii). to calculate biofilm volume reduction for individual organisms after the respective treatment types. The total biofilm volume was normalized by the area of the well and expressed as an average biofilm thickness. Complete data are provided in Supplementary Materials (Tables S1–S8).
For both inhibition and reduction of biofilms, overnight cultures from BHI were diluted in TSB + 1% Glc to reach an absorbance of 0.08 to 0.1 at 625 nm. The inoculum (150 µL) was transferred into wells of the 96-well flat-bottomed Ibidiμ-Plate (Ibidi, Gräfelfing, Germany) and mixed with 150 µL of each of the three tested substances in technical quadruplicates, followed by incubation at 37 °C for 24 h. Simultaneously, the prepared bacterial suspensions were inoculated to an additional microtiter plate (200 µL) and allowed to form biofilm overnight (18 h at 37 °C). After the incubation, the content of the well was drained off, and 200 µL of each of the three tested substances was added to the plate, which was then incubated for an additional 20 h. […]
All collected images were statistically evaluated to quantify biovolume utilizing the surface estimation procedure described in Parker et al.. […]

[2] = system: E. coli 693/17; assay: CLSM analysis, biofilm removal (preformed biofilm); format: cell-based, Escherichia coli; conditions: for Thickness (µm) subCBM80: substance at subinhibitory concentration
Procedure: as §1
At first, bacterial suspensions were cultivated in microtiter plates to produce overnight biofilms (18 h). […] cells were then washed out, and the remaining biofilms were further cultivated for an additional 20 h with selected compounds. Following biofilm cultivation, biomass was observed using CLSM with live/membrane-compromised cell staining. Biomass images from biofilm removal treatments were similar to results from biofilm prevention, where biomass was highly diversified across the bacterial species and strains. Visually, biomass images were fairly consistent within the quadruplicates for each tested organism. Non-treated biofilms of S. aureus contained consistent biomass spread across the well (S. aureus 816) or grown around the edges (S. aureus 1241). […] PI staining identified membrane-compromised cells spread across S. aureus 816 biomass and incorporated in the edge of biomass and/or in the central part of the well (Figure 4B,C). […] Membrane-compromised cells appeared contained around the edges (S. aureus 1241), disturbed across the well (in both strains of L. monocytogenes), or in separated biomass in the central part of the well (in both strains of E. coli when treated with the subinhibitory concentration of RLs) (Figure 4D,E).
For both inhibition and reduction of biofilms, overnight cultures from BHI were diluted in TSB + 1% Glc to reach an absorbance of 0.08 to 0.1 at 625 nm. The inoculum (150 µL) was transferred into wells of the 96-well flat-bottomed Ibidiμ-Plate (Ibidi, Gräfelfing, Germany) and mixed with 150 µL of each of the three tested substances in technical quadruplicates, followed by incubation at 37 °C for 24 h. Simultaneously, the prepared bacterial suspensions were inoculated to an additional microtiter plate (200 µL) and allowed to form biofilm overnight (18 h at 37 °C). After the incubation, the content of the well was drained off, and 200 µL of each of the three tested substances was added to the plate, which was then incubated for an additional 20 h. The used concentrations of the substances represented the subinhibitory and minimum inhibitory concentrations for metabolic activity (subCBM80, MICBM80; subCMPB80, MICMPB80). Both setups contained a positive control of the bacterial growth (inoculum mixed with sterile TSB + 1% Glc medium) and a control monitoring microbial contamination (sterile medium). Non-treated wells were used as a positive control for comparison between non-treated and treated biofilm mass.
Prior to the imaging, the wells were stained with the LIVE/DEAD® BacLight™ Bacterial Viability Kit (Thermo Fisher Scientific, MA, USA) following the manufacturer’s guidelines and Drago et al.. […]

[3] = preformed biofilm, 20 h exposure, mean ± SD

Structure (SMILES)	Thickness (µm) MICBM80 ([1]; substance at its MICBM80, mean ± SD)	Thickness (µm) subCBM80 [1]	Thickness (µm) MICBM80 ([2]; preformed biofilm, 20 h exposure, substance at its MIC, mean ± SD)	Thickness (µm) subCBM80 [2, 3]	proportion of membrane-compromised cells ([2]; 20 h, subinhibitory concentration)
CC(=O)N[C@@H](CS)C(=O)O [NAC, N-Acetyl-L-cysteine]	117 ± 41.6 µm	137 ± 69.6 µm	222 ± 68.8 µm	181 ± 33.7 µm	
CC(=O)c1c(O)c(C)c(O)c2c1OC1=CC(=O)C(C(C)=O)C(=O)C12C (single isomer, unassigned; (+)) [UA, (+)-usnic acid]		77.6 ± 39.1 µm		254 ± 81.8 µm	up to 40%
